Laboratory results reported in paper PMC9646789, “Discovery of potential natural dihydroorotate dehydrogenase inhibitors and their synergism with brequinar via integrated molecular docking, dynamic simulations and in vitro approach” (Scientific Reports, 2022).

Target: T1, human dihydroorotate dehydrogenase (hDHODH) (Homo sapiens, UniProt Q02127)
T1 construct: gene DHODH
Assay: biochemical

T1 sequence (Q02127 whole entry): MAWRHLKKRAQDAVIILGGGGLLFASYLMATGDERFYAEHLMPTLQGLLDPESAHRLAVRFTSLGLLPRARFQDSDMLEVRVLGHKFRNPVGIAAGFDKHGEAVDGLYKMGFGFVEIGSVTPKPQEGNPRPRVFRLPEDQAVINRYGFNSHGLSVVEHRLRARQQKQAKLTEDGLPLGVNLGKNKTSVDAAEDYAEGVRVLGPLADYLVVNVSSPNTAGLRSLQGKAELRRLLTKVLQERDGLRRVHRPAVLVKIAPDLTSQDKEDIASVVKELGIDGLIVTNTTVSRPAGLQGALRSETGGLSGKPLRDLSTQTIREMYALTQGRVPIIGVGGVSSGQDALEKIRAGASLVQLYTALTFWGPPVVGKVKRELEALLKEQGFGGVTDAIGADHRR

| IC50 [nM] | SMILES |
| --- | --- |
| 121 | COc1cc(C2Oc3cc([C@H]4Oc5cc(O)cc(O)c5C(=O)[C@@H]4O)ccc3OC2CO)ccc1O (some centres unmarked) [Silibinin] |
| 166 | COc1cc([C@H]2Oc3c(O)cc([C@H]4Oc5cc(O)cc(O)c5C(=O)[C@@H]4O)cc3[C@@H]2CO)ccc1O [Silychristin B] |
